According to patent US9265189B2, “Method for reducing damage by harmful organisms in corn cultivation” (SUMITOMO CHEMICAL COMPANY, LIMITED, priority 2012, dated 2016):

What was measured:
Format in all cases: in vivo
Agriotes sordidus = experiment: Field test, corn plants damaged by Agriotes sordidus after in-furrow spray (Example 3); details: Example section 3: clothianidin 25 g/ha, in-furrow spray of Dantop 50WG aqueous suspension 100 L/ha, corn KUBRIK, 34 days after application; non-treatment section 34.6
Method: A cultivated land was ditched at intervals of 75 cm to a depth of 3 cm from the soil surface, and the furrow was seeded with corn (Zea Mays, variety name: KUBRIK; hybrid variety) at intervals of 17 cm. A seeding density of corn was 78000 seeds/ha. Then, the furrow was spray-treated with an aqueous suspension of a clothianidin water dispersible granule (using a 50% water dispersible granule, trade name: Dantop 50WG, manufactured by Philagro) at 100 L/ha so that the application amount of clothianidin was 25 g/ha, and then a soil on the side of the furrow was gathered together to close the furrow. This was defined as an example section 3. For comparison, a non-treatment section, which was seeded with corn without application of a clothianidin water dispersible granule, was provided. In any section, four places were arranged by a randomized block method, with one place having an area of 54 m^2 (18 m×3 m). 34 days after application of the clothianidin water dispersible granule, the number of plants of corn damaged by Agriotes sordidus in each of the example section 3 and the non-treatment section was investigated, a damage plant rate was calculated in accordance with the following equation, and then an average damage plants rate of the four investigation sections was determined. Damage plant rate(%)=[(number of plants of corn damaged)/(number of plants of corn seeded)]×100

Agriotes spp. = experiment: Field test, corn plants damaged by Agriotes spp. after in-furrow spray (Example 2); details: Example section 2: clothianidin 50 g/ha, in-furrow spray of Dantop 50WG aqueous suspension 100 L/ha, corn DK 440, 34 days after application; non-treatment section 73.3
Method: Using a pneumatic seeder (disk furrow opener, manufactured by Gaspardo) equipped with a power sprayer (trade name: WJR 2525, manufactured by HONDA), a cultivated land was ditched at intervals of 75 cm to a depth of 3 cm from the soil surface, and the furrow was seeded with corn (Zea Mays, trade name: DK 440; hybrid variety, manufactured by Monsanto) at intervals of […]. A seeding density of corn was 100000 seeds/ha. Then, the furrow was spray-treated with an aqueous suspension of a clothianidin water dispersible granule (using a 50% dispersible granule, trade name: Dantop 50WG, manufactured by Philagro) at 100 L/ha so that the application amount of clothianidin was 50 g/ha, and then a soil on the side of the furrow was gathered together to close the furrow. This was defined as an example section 2. For comparison, a non-treatment section, which was seeded with corn without application of a clothianidin water dispersible granule, was provided. […] 34 days after application of the clothianidin water dispersible granule, the number of plants of corn damaged by Agriotes spp. in each of the example section 2 and the non-treatment section was investigated, a damage plant rate was calculated in accordance with the following equation, and then an average damage plants rate of the four investigation sections was determined. […]

[1] = test system: Diabrotica virgifera virgifera and Agriotes lineatus; experiment: Field test, corn lodged due to damage by Diabrotica virgifera virgifera and Agriotes lineatus (Example 4); details: Example section 4: clothianidin 80 g/ha, in-furrow spray of Dantop 50WG 125 L/ha, corn DKC 5143 seed treated with Maxim XL, 165 days after application; non-treatment section 23
Method: Ammonium phosphate (N:P:K=12:52:0) and urea (N:P:K=46:0:0), each of which being a fertilizer, were applied to the soil surface of a cultivated land at 100 kg/ha and 260 kg/ha, respectively, and the cultivated land was plowed. 24 days after fertilization, using a pneumatic seeder (disk furrow opener) equipped with a power sprayer, a cultivated land was ditched at intervals of 75 cm to a depth of 5 cm from the soil surface, and the furrow was seeded with corn (Zea Mays, variety name: DKC 5143; hybrid variety, manufactured by Monsanto). The cultivated land was seeded at intervals of 20 cm using, as a corn seed, one treated with a mixed agent of metalaxyl-M and fludioxonil (trade name: Maxim XL, manufactured by Syngenta). A seeding density of corn was 66667 seeds/ha. […] 165 days after application of the clothianidin water dispersible granule, the number of plants of corn lodged due to damage by Diabrotica virgifera virgifera and Agriotes lineatus in the furrows of the example section 4 and the non-treatment section, for which the number of plants of corn germinated was investigated, was investigated, a lodge rate was calculated in accordance with the following equation, and then an average lodge rate for the four investigation sections was determined. […]

CN/C(=N\[N+](=O)[O-])NCc1cnc(Cl)s1 [clothianidin]
Damage plant rate (%) (Agriotes sordidus): 1.8%
Damage plant rate (%) (Agriotes spp.): 7.7%
Lodge rate (%) [1]: 4%
